Patent publication US20230339968A1, “KRAS Gl2C INHIBITORS” (Eli Lilly and Company, priority 2019, published 2023)
Like-named read-outs stand apart in the source and are kept apart here.

Columns and labels:
[1] = system: MiaPaca-2 (pancr); experiment: CellTiterGlo Cell Proliferation Assay (2D), MiaPaca-2; type: cell-based; settings: Homo sapiens, MIA PaCa-2, 96 hours
Method: (§1) The purpose of this assay is to evaluate the growth of KRas G12C mutant tumor lines following treatment with a test compound. A panel of tumor cell lines harboring KRas G12C or other KRas mutations are collected (Table 25). All cell lines are from ATCC or other sources indicated.
(§2) Typically cells are cultured in RPMI1640 or Dulbecco's modified Eagle's medium (DMEM, GIBCO) supplemented with 10% FBS (GIBCO, Invitrogen). […] The cells are treated with compound for 96 hours, and then are analyzed for viability using the CellTiterGlo® Luminescent Cell Viability Assay® (Promega #G7572 for 2D) according to manufacturer's instructions and an EnVision™ plate reader. Nonlinear regression and sigmoidal dose-response curves are used to calculate the half maximal inhibitory concentration (IC50) with GraphPad Prism 4® software.

[2] = system: H2122 (lung); experiment: CellTiterGlo Cell Proliferation Assay (2D), H2122; type: cell-based; settings: Homo sapiens, NCI-H2122, 96 hours
Method: as §1, §2

[3] = system: pERK; experiment: In vivo pharmacodynamic effect, pERK Meso Scale Discovery ELISA of tumor lysates, lung cancer H358 xenograft model; design: species or system mouse; settings: H358 model, single dose 30 mg/kg; for inhibition at 30 mg/kg: Mus musculus, read-out: % inhibition of pERK
Method: (§3) The purpose of these assays is to evaluate in vivo target inhibition of an orally administered test compound. Human lung cancer H358 cells, or pancreatic cancer MiaPaca-2 cells, are implanted into nude mice xenograft tumor models. H358 or MiaPaca-2 cells (10×106 in a 1:1 Matrigel® mix, 0.2 mL total volume) are implanted by subcutaneous injection in hind leg of nude female mice (Harlan Laboratories). […] Treatment is initiated with oral administration (gavage) of a test compound or vehicle (20% Captisol®, 25 mM phosphate, pH 2.0 in 0.2 mL) when the tumor size reaches approximately 300 mg.
(§4) For in vivo target inhibition and PD analysis, tumors are ground by mortar and pestle on dry ice and tumor fragments are added to 800 μL of lysis buffer containing 1% Triton™ X-100, 25 mM Tris pH7.5, 150 mM sodium chloride, 1 mM EDTA, and 1 mM EGTA with Halt protease and phosphatase inhibitor cocktail (Thermo Scientific, cat. no. 1861281) in lysing matrix D tubes (MP Biomedical®, cat. no. 6913-500) with one additional large bead (MP Biomedical® ¼″ ceramic sphere bead cat. no. 6540-412) per tube. Tumor fragments are homogenized in a Thermo Bio101® fast prep (FP120) at setting 4 for […] while cold for a total of 2 times. Lysates are spun at 14,000 rpm for 10 minutes at 4° C. to clarify. Protein estimation is done on the lysate supernatant using a BioRad Dc® protein assay and lysates are diluted in complete lysis/binding buffer from the Ras GTPase Chemi ELISA Kit® (Active Motif, cat. no. 52097). The active KRas ELISA is performed as follows: glutathione-coated ELISA wells are incubated with diluted RAF1-GST in complete lysis/binding buffer for 1 hour at 4° C. with gentle agitation. Wells are washed 3 times with wash buffer and 100 μg of lysates are added to each well and incubated at ambient temperature for 1 hour with mild agitation. The wells are washed an additional 3 times, then primary antibody, diluted in antibody binding buffer, is added to each well. The plates are incubated for 1 hour. The wells are washed 3 more times before adding HRP-conjugated secondary antibody, diluted in antibody binding buffer, to each well. The plates are incubated at ambient temperature for 1 hour. ELISA wells are washed 4 times, chemiluminescent reagent is added and then luminescence is read. For pERK Meso Scale Discovery ELISA, 25 μg of protein containing 0.1% SDS is used; Meso Scale Discovery Whole Cell Lysate Kit for pERK is provided by Meso Scale Discovery.
(§5) The purpose of this assay is to evaluate the dose dependent in vivo target inhibition and pharmacodynamic effects in a lung cancer model. The test compound is dosed in lung cancer H358 mouse xenograft model at a dose range from 12.5 to 100 mg/kg. The tumor samples are collected 8 hours post a single dose. The tumor lysates are prepared and the inhibition of pERKand active KRas is measured as described above.
(§6) The purpose of this assay is to evaluate the time dependent in vivo target inhibition and pharmacodynamic effects in a lung cancer model. […] After a single dose, the tumor samples are harvested at 2, 4, 8, 12 and 24 hour post doing. The tumor lysates are prepared and the inhibition of pERK and active KRas is measured as described above.

[4] = system: H1373 (lung); experiment: CellTiterGlo Cell Proliferation Assay (2D), H1373; type: cell-based; settings: Homo sapiens, NCI-H1373, 96 hours
Method: as §1, §2

[5] = molecular target: active KRas (Homo sapiens, UniProt P01116, G12C); experiment: In vivo target inhibition, active KRas ELISA of tumor lysates, lung cancer H358 xenograft model; design: from tissue; host or cells: H358 xenograft tumours grown subcutaneously in nude female mice; settings: NCI-H358, mouse, H358 model, single dose 30 mg/kg, read-out: % Inhibition of Active Ras
Chain of active KRas (P01116 1-188 isoform P01116-2 G12C): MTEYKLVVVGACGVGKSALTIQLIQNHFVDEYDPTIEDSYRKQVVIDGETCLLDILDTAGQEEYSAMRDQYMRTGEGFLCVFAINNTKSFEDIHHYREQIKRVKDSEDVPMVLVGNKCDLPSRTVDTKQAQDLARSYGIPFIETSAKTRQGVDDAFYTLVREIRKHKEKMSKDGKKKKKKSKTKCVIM
Method: as §3, §4, §5, §6

[6] = system: Calu-1 (lung); experiment: CellTiterGlo Cell Proliferation Assay (2D), Calu-1; type: cell-based; settings: Homo sapiens, 96 hours
Method: as §1, §2

[7] = system: H2030 (lung); experiment: CellTiterGlo Cell Proliferation Assay (2D), H2030; type: cell-based; settings: Homo sapiens, NCI-H2030, 96 hours
Method: as §1, §2

[8] = system: SW756 (cervix); experiment: CellTiterGlo Cell Proliferation Assay (2D), SW756; type: cell-based; settings: Homo sapiens, 96 hours
Method: as §1, §2

## C=CC(=O)N1CCN2C(=O)c3cc(F)c(-c4ccc(F)c5sc(N)c(C#N)c45)c(Cl)c3OC[C@H]2C1 [Example 36, 4-[(4aR)-7-Chloro-9-fluoro-11-oxo-3-prop-2-enoyl-2,4,4a,5-tetrahydro-1H-pyrazino[2,1-c][1,4]benzoxazepine-8-yl]-2-amino-7-fluoro-benzothiophene-3-carbonitrile]
[1]
  IC50: 81 nM
[1]; 10 μM
  inhibition at 10 µM: 79.6%
[2]
  IC50: 1360 nM
[2]; 10 μM
  inhibition at 10 µM: 92.8%
[3]; 8 h, 30 mg/kg
  % inhibition of pERK: 86.9%
[3]; NCI-H358, 2 h, 2 h
  inhibition at 30 mg/kg: 79.7%
[3]; NCI-H358, 4 h, 4 h
  inhibition at 30 mg/kg: 84.2%
[3]; NCI-H358, 8 h, 8 h
  inhibition at 30 mg/kg: 82.6%
[3]; NCI-H358, 24 h, 24 h
  inhibition at 30 mg/kg: 48.8%
[4]
  IC50: 5490 nM
[4]; 10 μM
  inhibition at 10 µM: 82.6%
[5]; 2 h
  inhibition at 30 mg/kg: 72.6%
[5]; 4 h
  inhibition at 30 mg/kg: 72.4%
[5]; 8 h
  inhibition at 30 mg/kg: 88.5%
[5]; 24 h
  inhibition at 30 mg/kg: 43.2%
[6]
  IC50: 2920 nM
[6]; 10 μM
  inhibition at 10 µM: 77.4%
[7]
  IC50: > 10000 nM
[7]; 10 μM
  inhibition at 10 µM: 55.8%
[8]
  IC50: 2520 nM
[8]; 10 μM
  inhibition at 10 µM: 58.1%
